Data reported in patent US8222270B2 (Medicis Pharmaceutical Corporation, priority 2008, dated 2012).
“And” between values parts separate entries of the source, which are not always exact repeats. Identical values can stand only once.

Columns and labels:
[1] = Stability of calibration standards in spent receiver fluid; type: physicochemical; conditions: vs T = 0
[2] = Acute dermal toxicity under occlusion
[3] = Repeat dose oral toxicity, 6 months; type: in vivo, rats; conditions: dosed daily for 6 months
Experimental: The adverse effects observed for the high doses (10-30 mg/kg) in repeat dose oral toxicity studies in rats and monkeys could be related to exaggerated pharmacological effects of excessive cytokines induction and lymphoid stimulation: reduced body weight gains, anaemia, serum protein changes and death. […] An oral no-adverse-effect level of 3 mg/kg/day was determined in both rats and monkeys dosed daily for 6 months.

[4] = Intravenous embryofetal development study; type: in vivo, rabbits
[5] = system: interleukin-1 antagonist, interferon-α, 2′5′-oligoadenylate synthetase; assay: Biomarker response in 58 patients with AK treated 3 times per week for 16 weeks; type: in vivo, human; conditions: 16 weeks of dosing

CC(C)Cn1cnc2c(N)nc3ccccc3c21 [imiquimod, 1-(2-methylpropyl)-1H-imidazo[4,5-c]quinolin-4-amine]
48 h % recovered in Spent receiver fluid ([1]; Standard 52.75 μg/ml, Epidermal sheet + placebo, 37° C.): 86.906%
48 h % recovered in Spent receiver fluid ([1]; Standard 52.75 μg/ml, Epidermal sheet + placebo, Fridge): 85.635%
48 h % recovered in Spent receiver fluid ([1]; Standard 52.75 μg/ml, Epidermal sheet + placebo, RT): 88.169%
48 h % recovered in Spent receiver fluid ([1]; Standard 52.75 μg/ml, Epidermal sheet, 37° C.): 90.943%
48 h % recovered in Spent receiver fluid ([1]; Standard 52.75 μg/ml, Epidermal sheet, Fridge): 87.669%
48 h % recovered in Spent receiver fluid ([1]; Standard 52.75 μg/ml, Epidermal sheet, RT): 89.096%
48 h % recovered in Spent receiver fluid ([1]; Standard 52.75 μg/ml, Full thickness + placebo, 37° C.): 93.779%
48 h % recovered in Spent receiver fluid ([1]; Standard 52.75 μg/ml, Full thickness + placebo, Fridge): 91.776%
48 h % recovered in Spent receiver fluid ([1]; Standard 52.75 μg/ml, Full thickness + placebo, RT): 92.027%
48 h % recovered in Spent receiver fluid ([1]; Standard 52.75 μg/ml, Full thickness, 37° C.): 95.282%
48 h % recovered in Spent receiver fluid ([1]; Standard 52.75 μg/ml, Full thickness, Fridge): 92.317%
48 h % recovered in Spent receiver fluid ([1]; Standard 52.75 μg/ml, Full thickness, RT): 92.152%
48 h % recovered in Spent receiver fluid ([1]; Standard 84.4 μg/ml, Epidermal sheet + placebo, 37° C.): 98.178%
48 h % recovered in Spent receiver fluid ([1]; Standard 84.4 μg/ml, Epidermal sheet + placebo, Fridge): 95.620%
48 h % recovered in Spent receiver fluid ([1]; Standard 84.4 μg/ml, Epidermal sheet + placebo, RT): 96.033%
48 h % recovered in Spent receiver fluid ([1]; Standard 84.4 μg/ml, Epidermal sheet, 37° C.): 82.694%
48 h % recovered in Spent receiver fluid ([1]; Standard 84.4 μg/ml, Epidermal sheet, Fridge): 81.350%
48 h % recovered in Spent receiver fluid ([1]; Standard 84.4 μg/ml, Epidermal sheet, RT): 82.276%
48 h % recovered in Spent receiver fluid ([1]; Standard 84.4 μg/ml, Full thickness + placebo, 37° C.): 85.629%
48 h % recovered in Spent receiver fluid ([1]; Standard 84.4 μg/ml, Full thickness + placebo, Fridge): 84.561%
48 h % recovered in Spent receiver fluid ([1]; Standard 84.4 μg/ml, Full thickness + placebo, RT): 84.421%
48 h % recovered in Spent receiver fluid ([1]; Standard 84.4 μg/ml, Full thickness, 37° C.): 101.010%
48 h % recovered in Spent receiver fluid ([1]; Standard 84.4 μg/ml, Full thickness, Fridge): 98.841%
48 h % recovered in Spent receiver fluid ([1]; Standard 84.4 μg/ml, Full thickness, RT): 99.790%
48 h % recovered in Spent receiver fluid ([1]; Standard 105.5 μg/ml, Epidermal sheet + placebo, 37° C.): 84.903%
48 h % recovered in Spent receiver fluid ([1]; Standard 105.5 μg/ml, Epidermal sheet + placebo, Fridge): 83.833%
48 h % recovered in Spent receiver fluid ([1]; Standard 105.5 μg/ml, Epidermal sheet + placebo, RT): 84.515%
48 h % recovered in Spent receiver fluid ([1]; Standard 105.5 μg/ml, Epidermal sheet, 37° C.): 91.501%
48 h % recovered in Spent receiver fluid ([1]; Standard 105.5 μg/ml, Epidermal sheet, Fridge): 90.465%
48 h % recovered in Spent receiver fluid ([1]; Standard 105.5 μg/ml, Epidermal sheet, RT): 92.089%
48 h % recovered in Spent receiver fluid ([1]; Standard 105.5 μg/ml, Full thickness + placebo, 37° C.): 91.704%
48 h % recovered in Spent receiver fluid ([1]; Standard 105.5 μg/ml, Full thickness + placebo, Fridge): 88.242%
48 h % recovered in Spent receiver fluid ([1]; Standard 105.5 μg/ml, Full thickness + placebo, RT): 88.546%
48 h % recovered in Spent receiver fluid ([1]; Standard 105.5 μg/ml, Full thickness, 37° C.): 92.278%
48 h % recovered in Spent receiver fluid ([1]; Standard 105.5 μg/ml, Full thickness, Fridge): 90.545%
48 h % recovered in Spent receiver fluid ([1]; Standard 105.5 μg/ml, Full thickness, RT): 92.275%
48 h % recovered in Spent receiver fluid ([1]; Standard […] μg/ml, Epidermal sheet + placebo, 37° C.): 89.945%
48 h % recovered in Spent receiver fluid ([1]; Standard […] μg/ml, Epidermal sheet + placebo, Fridge): 84.046%
48 h % recovered in Spent receiver fluid ([1]; Standard […] μg/ml, Epidermal sheet + placebo, RT): 85.095%
48 h % recovered in Spent receiver fluid ([1]; Standard […] μg/ml, Epidermal sheet, 37° C.): 97.099%
48 h % recovered in Spent receiver fluid ([1]; Standard […] μg/ml, Epidermal sheet, Fridge): 93.180%
48 h % recovered in Spent receiver fluid ([1]; Standard […] μg/ml, Epidermal sheet, RT): 94.971%
48 h % recovered in Spent receiver fluid ([1]; Standard […] μg/ml, Full thickness + placebo, 37° C.): 90.798%
48 h % recovered in Spent receiver fluid ([1]; Standard […] μg/ml, Full thickness + placebo, Fridge): 88.307%
48 h % recovered in Spent receiver fluid ([1]; Standard […] μg/ml, Full thickness + placebo, RT): 86.897%
48 h % recovered in Spent receiver fluid ([1]; Standard […] μg/ml, Full thickness, 37° C.): 97.826%
48 h % recovered in Spent receiver fluid ([1]; Standard […] μg/ml, Full thickness, Fridge): 94.989%
48 h % recovered in Spent receiver fluid ([1]; Standard […] μg/ml, Full thickness, RT): 93.522%
Dermal lethal dose ([2]; rabbit, in vivo): greater than 5000 mg/kg
LD50 ([2]; rabbit, in vivo, topical, 5000 mg/kg): > 5000 mg/kg
Acute dermal toxicity ([2]; unformulated, under occlusion, 5000 mg/kg): did not reveal any toxic effects
Oral no-adverse-effect level [3]: 3 mg/kg/day
Teratogenicity ([4]; female, rabbit, in vivo): not teratogenic
Dose with no treatment related effects on embryofetal toxicity or teratogenicity ([4]; intravenous, gestational days 6-18): 2 mg/kg/day and 1 mg/kg/day
2′5′-oligoadenylate synthetase, median concentration after multiple dosing vs single dose [5]: approximately 3 fold
Interferon-α, median concentration after multiple dosing vs single dose [5]: ≤ 3 fold
Interleukin-1 antagonist, median concentration after multiple dosing vs single dose [5]: < 2 fold
